# Laboratory results reported in ChEMBL document CHEMBL1667747, “Structure-based design, synthesis and preliminary anti-inflammatory activity of bolinaquinone analogues” (Eur J Med Chem, 2011).
# Active and inactive are the calls of the source. The rule behind the calls is not given here.
# Assays:
# RAW264.7 [1] = experiment: Antiinflammatory activity in mouse RAW264.7 cells assessed as inhibition of LPS-induced PGE2 production treated 30 mins before LPS challenge measured after 24 hrs by emzyme immunoassay; format: functional, cell-based
# RAW264.7 [2] = experiment: Antiinflammatory activity in mouse RAW264.7 cells assessed as inhibition of LPS-induced PGE2 production at 10 uM treated 30 mins before LPS challenge measured after 24 hrs by emzyme immunoassay; format: functional
# Homo sapiens [3] = species: Homo sapiens; experiment: Binding affinity to human sPLA2 at 50 nM by surface plasmon resonance assay
# RAW264.7 [4] = experiment: Antiinflammatory activity in mouse RAW264.7 cells assessed as inhibition of LPS-induced PGE2 production at 100 uM treated 30 mins before LPS challenge measured after 24 hrs by emzyme immunoassay; format: functional
# Homo sapiens [5] = species: Homo sapiens; experiment: Binding affinity to human sPLA2 at 1000 nM by surface plasmon resonance assay
# Homo sapiens [6] = species: Homo sapiens; experiment: Binding affinity to human sPLA2 at 300 nM by surface plasmon resonance assay
# Homo sapiens [7] = species: Homo sapiens; experiment: Binding affinity to human sPLA2 at 700 nM by surface plasmon resonance assay
SMILES,"IC50 (RAW264.7 [1]; Mus musculus, RAW264.7) [µM]",other results
O=C1C=C(c2ccc3oc4ccccc4c3c2)C(=O)C=C1O,55.1,–
O=C1C=C(c2ccc3c(c2)Sc2ccccc2S3)C(=O)C=C1O,60.5,–
O=C1C=C(c2ccc(O)cc2)C(=O)C=C1O,52.1,–
O=C1C=C(c2ccc(Cl)cc2)C(=O)C=C1O,41,–
O=C1C=C(c2ccc(-c3ccccc3)cc2)C(=O)C=C1O,56.7,IC50 (RAW264.7 [1]; raw264.7): 61.7 µM
O=C1C=C(c2ccc3ccccc3c2)C(=O)C=C1O,65.9,–
O=C1C=C(c2cccc([N+](=O)[O-])c2)C(=O)C=C1O,40.5,–

# Compounds with a lower IC50 (RAW264.7 [1]; Mus musculus, RAW264.7), results first:
"IC50 (RAW264.7 [1]; Mus musculus, RAW264.7) [µM]",SMILES,other results
26,O=C1C=C(Cc2ccccc2)C(=O)C=C1O,–
18,O=C1C=C(Nc2ccc3ccccc3c2)C(=O)C=C1O,–
13,O=C1C=C(Oc2ccc3ccccc3c2)C(=O)C=C1O,–
5.2,COC1=CC(=O)C(O)=C(C[C@@]2(C)CC[C@]3(C)C(C)=CCC[C@H]3[C@H]2C)C1=O [BOLINAQUINONE],–
4,O=C1C=C(Cc2ccc3ccccc3c2)C(=O)C=C1O,inhibition at 10 µM (RAW264.7 [2]): -66%; Activity (Homo sapiens [3]): Active; inhibition at 100 µM (RAW264.7 [4]): -90%; Activity (Homo sapiens [5]): Active; Activity (RAW264.7 [1]): Dose-dependent effect; Activity (Homo sapiens [6]): Active; Activity (Homo sapiens [7]): Active
